Each block holds one compound with its values, some of them ahead of it.
Columns and labels:
[1] = target: Phosphatidylinositol 4-kinase alpha (Homo sapiens, UniProt P42356); experiment: Selectivity interaction (ActivX KiNativ screen (ex vivo kinase selectivity in human PBMCs)) EUB0001619a PI4KA; format: cell-based; conditions: PBMC, at 1 µM
[2] = target: T1, Serine/threonine-protein kinase Sgk3 (Homo sapiens) (UniProt Q96BR1); experiment: Selectivity interaction (ActivX KiNativ screen (kinase selectivity in THP-1 cell lysates)) EUB0000639a SGK3; format: subcellular; conditions: lysate, at 1 µM
T1 sequence (whole entry): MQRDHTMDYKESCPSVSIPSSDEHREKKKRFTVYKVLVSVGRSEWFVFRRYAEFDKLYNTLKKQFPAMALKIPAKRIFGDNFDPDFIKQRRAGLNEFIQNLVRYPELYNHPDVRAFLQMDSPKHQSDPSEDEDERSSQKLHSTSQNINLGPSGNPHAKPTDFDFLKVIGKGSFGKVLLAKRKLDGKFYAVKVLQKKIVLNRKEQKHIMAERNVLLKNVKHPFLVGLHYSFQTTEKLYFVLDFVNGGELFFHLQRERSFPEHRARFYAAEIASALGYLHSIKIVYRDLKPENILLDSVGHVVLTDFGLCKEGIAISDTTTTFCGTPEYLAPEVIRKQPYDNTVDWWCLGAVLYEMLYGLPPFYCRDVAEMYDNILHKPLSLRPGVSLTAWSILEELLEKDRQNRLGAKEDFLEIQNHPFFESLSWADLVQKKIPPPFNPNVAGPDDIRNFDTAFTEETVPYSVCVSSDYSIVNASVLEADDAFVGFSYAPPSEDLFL

[3] = target: CDK4/Cyclin D3 (Homo sapiens) (UniProt P11802+P30281); experiment: (§1) Selectivity interaction (KinomeScan (DiscoverX)) EUB0001049a CDK4; format: protein-complex assay; conditions: at 1 µM
[4] = target: Cyclin-dependent kinase 4/cyclin D1 (Homo sapiens) (UniProt P11802+P24385); experiment: as §1; format: protein-complex assay; conditions: at 1 µM
[5] = target: Ephrin type-A receptor 4 (Homo sapiens, UniProt P54764); experiment: Selectivity interaction (KinomeScan (DiscoverX)) EUB0000666a EPHA4; conditions: at 10 µM
Chain of Ephrin type-A receptor 4 (P54764 whole entry): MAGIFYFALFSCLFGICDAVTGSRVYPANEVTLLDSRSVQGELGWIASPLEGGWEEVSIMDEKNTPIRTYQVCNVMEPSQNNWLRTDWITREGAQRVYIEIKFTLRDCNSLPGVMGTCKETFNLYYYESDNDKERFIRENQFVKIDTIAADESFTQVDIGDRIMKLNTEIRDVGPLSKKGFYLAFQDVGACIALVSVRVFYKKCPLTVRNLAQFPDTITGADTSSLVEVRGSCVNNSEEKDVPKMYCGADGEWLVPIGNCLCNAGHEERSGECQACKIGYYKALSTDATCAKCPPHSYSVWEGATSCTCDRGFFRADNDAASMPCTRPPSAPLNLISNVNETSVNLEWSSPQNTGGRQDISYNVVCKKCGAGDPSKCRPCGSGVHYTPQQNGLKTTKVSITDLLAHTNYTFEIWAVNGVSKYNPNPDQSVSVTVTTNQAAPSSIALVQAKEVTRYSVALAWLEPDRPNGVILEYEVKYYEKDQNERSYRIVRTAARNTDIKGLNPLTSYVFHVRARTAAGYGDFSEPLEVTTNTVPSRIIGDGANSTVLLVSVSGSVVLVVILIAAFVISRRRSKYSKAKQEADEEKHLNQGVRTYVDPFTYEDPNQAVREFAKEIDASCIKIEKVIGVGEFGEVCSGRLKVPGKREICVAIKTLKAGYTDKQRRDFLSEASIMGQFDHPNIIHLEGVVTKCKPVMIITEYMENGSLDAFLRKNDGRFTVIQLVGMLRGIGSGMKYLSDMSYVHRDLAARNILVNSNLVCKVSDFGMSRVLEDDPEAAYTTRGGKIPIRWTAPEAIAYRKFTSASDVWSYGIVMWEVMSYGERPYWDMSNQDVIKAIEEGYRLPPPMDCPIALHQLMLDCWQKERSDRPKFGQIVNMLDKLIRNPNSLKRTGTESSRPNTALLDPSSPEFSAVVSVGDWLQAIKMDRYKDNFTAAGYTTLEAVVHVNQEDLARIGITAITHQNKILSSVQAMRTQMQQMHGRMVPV

[6] = target: T2, Mitogen-activated protein kinase kinase kinase 6 (Homo sapiens) (UniProt O95382); experiment: Selectivity interaction (KinomeScan (DiscoverX)) EUB0000666a MAP3K6; conditions: at 10 µM
T2 sequence (whole entry): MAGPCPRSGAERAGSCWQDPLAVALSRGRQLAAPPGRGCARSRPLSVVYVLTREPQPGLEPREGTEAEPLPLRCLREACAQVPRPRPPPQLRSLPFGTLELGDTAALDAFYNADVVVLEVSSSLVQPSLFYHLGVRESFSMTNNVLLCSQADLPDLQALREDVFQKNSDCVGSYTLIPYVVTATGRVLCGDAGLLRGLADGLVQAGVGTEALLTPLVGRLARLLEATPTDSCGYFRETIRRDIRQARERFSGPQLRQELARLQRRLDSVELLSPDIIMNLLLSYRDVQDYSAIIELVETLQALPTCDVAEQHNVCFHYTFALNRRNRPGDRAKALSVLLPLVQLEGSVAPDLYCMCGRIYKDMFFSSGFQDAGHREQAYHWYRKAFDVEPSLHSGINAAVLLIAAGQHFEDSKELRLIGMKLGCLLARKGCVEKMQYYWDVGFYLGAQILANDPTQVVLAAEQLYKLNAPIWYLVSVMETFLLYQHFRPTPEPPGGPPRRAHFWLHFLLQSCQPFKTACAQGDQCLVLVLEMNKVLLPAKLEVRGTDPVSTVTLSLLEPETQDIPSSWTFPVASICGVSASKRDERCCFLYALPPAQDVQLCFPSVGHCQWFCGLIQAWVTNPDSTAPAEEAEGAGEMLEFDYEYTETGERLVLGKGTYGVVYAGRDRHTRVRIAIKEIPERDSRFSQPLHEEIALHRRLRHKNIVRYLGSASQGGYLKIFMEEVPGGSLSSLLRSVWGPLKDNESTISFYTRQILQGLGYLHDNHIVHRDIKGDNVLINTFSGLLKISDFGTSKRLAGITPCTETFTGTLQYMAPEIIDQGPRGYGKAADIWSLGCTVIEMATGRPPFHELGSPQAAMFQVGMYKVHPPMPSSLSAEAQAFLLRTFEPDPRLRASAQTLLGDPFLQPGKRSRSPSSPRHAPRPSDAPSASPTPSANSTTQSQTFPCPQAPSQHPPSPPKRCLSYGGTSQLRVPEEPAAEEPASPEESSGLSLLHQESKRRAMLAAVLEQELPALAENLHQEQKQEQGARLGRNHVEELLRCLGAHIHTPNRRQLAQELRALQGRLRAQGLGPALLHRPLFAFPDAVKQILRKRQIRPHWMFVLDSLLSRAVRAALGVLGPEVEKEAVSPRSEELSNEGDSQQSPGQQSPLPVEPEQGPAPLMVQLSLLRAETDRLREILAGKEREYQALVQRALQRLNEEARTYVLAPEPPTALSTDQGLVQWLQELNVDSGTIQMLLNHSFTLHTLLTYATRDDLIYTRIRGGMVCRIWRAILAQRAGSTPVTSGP

[7] = target: T3, Atypical kinase COQ8B, mitochondrial (Homo sapiens) (UniProt Q96D53); experiment: Selectivity interaction (KinomeScan (DiscoverX)) EUB0000092b ADCK4; conditions: at 10 µM
T3 sequence (whole entry): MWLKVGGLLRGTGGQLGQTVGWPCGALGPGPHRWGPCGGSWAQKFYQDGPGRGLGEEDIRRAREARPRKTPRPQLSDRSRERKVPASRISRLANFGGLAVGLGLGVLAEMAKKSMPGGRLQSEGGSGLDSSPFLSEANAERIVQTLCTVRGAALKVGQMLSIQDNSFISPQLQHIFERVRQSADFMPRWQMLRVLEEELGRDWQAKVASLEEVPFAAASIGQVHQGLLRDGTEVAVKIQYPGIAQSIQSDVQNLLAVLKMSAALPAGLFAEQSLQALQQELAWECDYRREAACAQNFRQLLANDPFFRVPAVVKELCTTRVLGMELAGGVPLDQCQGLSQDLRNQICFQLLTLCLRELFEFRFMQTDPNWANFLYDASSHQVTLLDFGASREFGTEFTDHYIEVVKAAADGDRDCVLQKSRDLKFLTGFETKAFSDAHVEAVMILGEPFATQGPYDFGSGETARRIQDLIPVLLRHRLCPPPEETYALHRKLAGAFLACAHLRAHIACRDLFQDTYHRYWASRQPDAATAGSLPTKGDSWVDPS

[8] = target: Bone morphogenetic protein receptor type-1A (Homo sapiens, UniProt P36894); experiment: Selectivity interaction (LanthaScreen Eu Kinase Binding Assay) EUB0001632a BMPR1A; conditions: at 10 µM
Chain of Bone morphogenetic protein receptor type-1A (P36894 whole entry): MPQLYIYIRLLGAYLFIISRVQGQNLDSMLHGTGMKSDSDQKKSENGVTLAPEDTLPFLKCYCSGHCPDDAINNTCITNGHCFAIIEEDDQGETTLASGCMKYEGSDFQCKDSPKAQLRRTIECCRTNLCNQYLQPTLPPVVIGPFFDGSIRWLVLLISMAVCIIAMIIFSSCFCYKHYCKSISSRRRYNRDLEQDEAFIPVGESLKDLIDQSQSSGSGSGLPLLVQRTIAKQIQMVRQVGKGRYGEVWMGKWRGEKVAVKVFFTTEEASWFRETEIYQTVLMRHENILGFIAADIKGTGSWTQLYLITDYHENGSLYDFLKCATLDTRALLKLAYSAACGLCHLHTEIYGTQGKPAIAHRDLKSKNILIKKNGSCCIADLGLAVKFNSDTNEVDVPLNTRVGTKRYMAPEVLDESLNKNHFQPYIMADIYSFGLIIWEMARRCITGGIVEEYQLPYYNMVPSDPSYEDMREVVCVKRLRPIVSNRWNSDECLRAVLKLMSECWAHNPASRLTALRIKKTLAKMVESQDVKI

Chain of Phosphatidylinositol 4-kinase alpha (P42356 whole entry, looked up): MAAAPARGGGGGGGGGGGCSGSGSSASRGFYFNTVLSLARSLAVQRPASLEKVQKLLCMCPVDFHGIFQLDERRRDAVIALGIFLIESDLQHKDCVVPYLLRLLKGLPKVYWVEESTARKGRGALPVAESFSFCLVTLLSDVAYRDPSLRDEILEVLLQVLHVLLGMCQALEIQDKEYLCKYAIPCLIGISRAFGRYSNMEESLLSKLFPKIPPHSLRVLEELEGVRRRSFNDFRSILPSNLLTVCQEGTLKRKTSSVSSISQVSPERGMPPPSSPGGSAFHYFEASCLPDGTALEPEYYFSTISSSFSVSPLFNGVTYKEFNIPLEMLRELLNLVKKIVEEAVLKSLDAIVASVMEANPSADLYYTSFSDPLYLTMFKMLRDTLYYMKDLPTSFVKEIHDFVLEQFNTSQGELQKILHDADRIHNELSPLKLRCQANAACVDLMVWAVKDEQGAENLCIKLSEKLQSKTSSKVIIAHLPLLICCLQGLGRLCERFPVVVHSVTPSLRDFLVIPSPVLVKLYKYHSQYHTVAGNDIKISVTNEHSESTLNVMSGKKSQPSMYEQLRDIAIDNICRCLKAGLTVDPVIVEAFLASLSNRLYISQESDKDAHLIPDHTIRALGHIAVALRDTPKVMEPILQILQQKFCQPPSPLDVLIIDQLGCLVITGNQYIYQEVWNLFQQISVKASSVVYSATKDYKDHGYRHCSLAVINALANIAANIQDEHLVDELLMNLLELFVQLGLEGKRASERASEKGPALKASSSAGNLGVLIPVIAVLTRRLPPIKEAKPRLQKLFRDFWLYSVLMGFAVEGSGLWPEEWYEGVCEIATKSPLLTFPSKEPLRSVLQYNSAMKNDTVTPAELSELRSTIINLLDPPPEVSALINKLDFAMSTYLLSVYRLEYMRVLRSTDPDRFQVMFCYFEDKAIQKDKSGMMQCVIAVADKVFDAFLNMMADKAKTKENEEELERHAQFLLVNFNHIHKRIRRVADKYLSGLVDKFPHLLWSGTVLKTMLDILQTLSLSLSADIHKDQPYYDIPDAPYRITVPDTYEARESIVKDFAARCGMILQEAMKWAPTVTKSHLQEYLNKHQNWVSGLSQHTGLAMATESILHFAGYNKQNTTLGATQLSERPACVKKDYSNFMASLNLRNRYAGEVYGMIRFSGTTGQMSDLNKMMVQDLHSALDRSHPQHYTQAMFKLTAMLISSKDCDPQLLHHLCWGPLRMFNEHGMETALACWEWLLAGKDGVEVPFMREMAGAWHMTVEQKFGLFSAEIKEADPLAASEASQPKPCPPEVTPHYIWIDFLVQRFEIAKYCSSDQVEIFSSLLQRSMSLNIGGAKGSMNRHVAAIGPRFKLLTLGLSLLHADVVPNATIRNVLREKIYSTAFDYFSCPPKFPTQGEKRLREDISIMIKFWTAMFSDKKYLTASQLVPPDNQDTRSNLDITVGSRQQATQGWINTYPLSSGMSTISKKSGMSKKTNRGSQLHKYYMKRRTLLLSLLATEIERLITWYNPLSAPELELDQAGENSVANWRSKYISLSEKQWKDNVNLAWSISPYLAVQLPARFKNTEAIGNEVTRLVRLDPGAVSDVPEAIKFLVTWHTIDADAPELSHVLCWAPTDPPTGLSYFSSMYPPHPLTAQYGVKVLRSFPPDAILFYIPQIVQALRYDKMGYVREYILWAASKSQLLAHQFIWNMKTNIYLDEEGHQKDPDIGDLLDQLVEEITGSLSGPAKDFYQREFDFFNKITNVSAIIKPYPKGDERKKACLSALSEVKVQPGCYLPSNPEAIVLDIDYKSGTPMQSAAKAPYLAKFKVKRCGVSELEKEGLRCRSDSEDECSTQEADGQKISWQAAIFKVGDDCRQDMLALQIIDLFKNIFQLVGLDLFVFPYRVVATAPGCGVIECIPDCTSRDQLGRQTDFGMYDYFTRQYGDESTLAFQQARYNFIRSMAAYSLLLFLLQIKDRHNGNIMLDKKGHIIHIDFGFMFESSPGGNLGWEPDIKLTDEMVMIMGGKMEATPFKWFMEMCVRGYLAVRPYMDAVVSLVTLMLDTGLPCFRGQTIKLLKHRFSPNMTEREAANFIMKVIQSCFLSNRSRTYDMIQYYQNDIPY

SMILES: N#Cc1cccc(-c2c[nH]c3ncnc(N4CCOCC4)c23)c1
% of inhibition [1]: 6%

% of inhibition [2]: -1%
SMILES: CC[C@@H]1[C@H](F)C(=O)N[C@@H]1COc1nccc2cc(C(N)=O)c(OC)cc12 [ZIMLOVISERTIB]

SMILES: COc1cc(Nc2nc(C)cc(-c3cnn4nc(OC)ccc34)n2)cc(C(F)(F)F)c1
% of control [3]: 98%
% of control [4]: 100%

SMILES: O=C(NOC[C@H](O)CO)c1ccc(F)c(F)c1Nc1ccc(I)cc1F
% of control [5]: 100%
% of control [6]: 95%

SMILES: CCC(=O)N1CCN(c2ccc(-n3c(=O)ccc4cnc5ccc(-c6cnc7ccccc7c6)cc5c43)cc2C(F)(F)F)CC1
% of control [7]: 15%

% of inhibition [8]: -8.67%
SMILES: Cn1cc(-n2cnc3c(NCc4nc5cc(Cl)c(Cl)cc5[nH]4)nc(N4CCOCC4)nc32)cn1
